Results published in patent publication US20050228020A1, “Beta secretase inhibitors” (priority 2000, published 2005).
Counter-ions that a name gives are not always drawn.

molecular target: T1, recombinant human β secretase (Homo sapiens, UniProt P56817); assay: Measurement of inhibitory activity on β secretase (fluorogenic peptide substrate cleavage); format: biochemical; conditions: pH 4.5
T1 construct: made in house; host or cells: COS7 cells transfected with pBACE2; membrane fraction solubilised with octyl-β-glucoside, purified with anti-Flag antibody
Source text: The PCR product was subjected to agarose gel electrophoresis, and about a 700-b DNA fragment was recovered. The fragment was cloned with a Zero Blunt TOPO PCR Cloning Kit (Invitrogen). The resultant plasmid was digested with restriction enzymes APaI (Takara Shuzo) and KpnI (Takara Shuzo) and then subjected to agarose gel electrophoresis to recover about a 250-b DNA fragment. […] These DNA fragments were mixed with an animal cell expression plasmid pcDNA3.1 (−) (Funakoshi) digested with API and KpnI, then ligated by use of Ligation High (Toyobo), and used to transform E. coli JM109 competent cells (Takara Shuzo) to give plasmid pBACE1. […] The PCR product was subjected to agarose gel electrophoresis, and about a 170-b DNA fragment was recovered. The fragment was cloned with a Zero Blunt TOPO PCR Cloning Kit (Invitrogen). The resultant plasmid was digested with restriction enzymes APaI (Takara Shuzo) and BbeI (Takara Shuzo) and then subjected to agarose gel electrophoresis, to recover about a 120-b DNA fragment. pBACE1 was digested with the same enzymes and subjected to agarose gel electrophoresis to recover about a 1.1-kb DNA fragment. Further, pBACE1 was digested with APaI and subjected to agarose gel electrophoresis to recover about a 5.7-kb DNA fragment. These 3 fragments were ligated by use of Ligation High (Toyobo), and used to transform E. coli JM109 competent cells (Takara Shuzo) to give plasmid pBACE2.
15 μg of Human β secretase expression plasmid pBACE2 and 45 μl of Fugene 6 (Roche Diagnostics) were allowed to stand in 1.5 ml D-MEM medium for 15 minutes at room temperature, and this mixture was added to COS7 cells previously grown in D-MEM medium (Nikken Seibutsu Igaku Kenkyusho) containing 10% fetal bovine serum (LifeTech Oriental) in a Tissue culture flask 150 ml (Becton, Dickinson & Co). […] The disrupted solution was centrifuged (500 g, 10 minutes), the supernatant was ultracentrifuged (100,000 g, 45 minutes), and the precipitates were lyzed (4° C., 2.5 hours) with 0.5 ml lyzing buffer (0.01 M Tris-HCl (pH 8), 0.05 M octyl-β-glucoside, 1 mM EDTA, 0.5 mM PMSF) and then ultracentrifuged (100,000 g, 45 minutes). The supernatant was purified with 100 μl anti-Flag antibody (Sigma).

T1 sequence (P56817 with tags, fused parts or gaps): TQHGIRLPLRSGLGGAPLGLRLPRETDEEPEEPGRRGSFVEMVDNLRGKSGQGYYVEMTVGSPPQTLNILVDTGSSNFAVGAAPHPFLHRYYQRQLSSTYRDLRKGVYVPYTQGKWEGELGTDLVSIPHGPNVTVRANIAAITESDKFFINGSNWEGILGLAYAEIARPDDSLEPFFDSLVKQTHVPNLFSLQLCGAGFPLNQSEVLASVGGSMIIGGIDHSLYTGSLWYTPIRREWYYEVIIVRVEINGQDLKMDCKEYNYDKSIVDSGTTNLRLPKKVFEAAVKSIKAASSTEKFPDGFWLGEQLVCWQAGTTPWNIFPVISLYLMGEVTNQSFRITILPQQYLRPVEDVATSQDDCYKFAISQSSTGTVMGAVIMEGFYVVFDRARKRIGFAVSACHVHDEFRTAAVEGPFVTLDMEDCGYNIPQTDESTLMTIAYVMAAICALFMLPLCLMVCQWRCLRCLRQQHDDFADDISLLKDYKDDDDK

c1ccc(-c2ccc(COc3ccc4c(c3)CCC(CCN3CCCCC3)C4)cc2)cc1 (stereo not drawn) [F] gave an IC50 of 349 nM.

same assay, conditions: substrate Nma-Ser-Glu-Val-Asn-Leu-Asp-Ala-Glu-Lys(Dnp)-Arg-Arg-NH2; 0.05 M acetate buffer pH 4.5; 37° C. for 22 hours; fluorescence 325/460

NCCC1CCc2cc(OCc3ccc(-c4ccccc4)cc3)ccc2C1 (stereo not drawn) [I] and CNCCC1CCc2cc(OCc3ccc(-c4ccccc4)cc3)ccc2C1 (stereo not drawn) [Compound C] are within 1.5-fold of each other in IC50: 1050 nM for the first, 1290 nM for the second.

Going from Cc1ccc(-c2ccc(COc3ccc4c(c3)CC[C@@H](CCN(C)C)C4)cc2)cc1 [J] to CN(C)CC[C@@H]1CCc2cc(OCc3ccc(-c4ccccc4)cc3)ccc2C1 [Compound A, (R)-(+)-6-(4-Biphenylyl)methoxy-2-[2-(N,N-dimethylamino)ethyl]tetralin hydrochloride·1H2O], the IC50 rises from 857 nM to 2930 nM (3.4-fold). The first is the more potent here.

c1ccc(-c2ccc(COc3ccc4c(c3)CCC(CCN3CCCC3)C4)cc2)cc1 (stereo not drawn) [E] and c1ccc(-c2ccc(COc3ccc4c(c3)CCC(CCn3ccnc3)C4)cc2)cc1 (stereo not drawn) [G] are within 1.5-fold of each other in IC50: 1120 nM for the first, 856 nM for the second.

First: C[N+](C)([O-])CCC1CCc2cc(OCc3ccc(-c4ccccc4)cc3)ccc2C1 (stereo not drawn) [H]
Second: CCN(C)CCC1CCc2cc(OCc3ccc(-c4ccccc4)cc3)ccc2C1 (stereo not drawn) [D]
The IC50 of the first is 1.5-fold lower: 616 nM for the first, 945 nM for the second.
